# Source: ChEMBL document CHEMBL1143752, “Fatty acyl amides of endogenous tetrahydroisoquinolines are active at the recombinant human TRPV1 receptor” (Bioorg Med Chem, 2007)
# Columns and labels:
# Type in all cases: functional, cell-based
# [1] = target: Transient receptor potential cation channel subfamily V member 1 (Homo sapiens) (UniProt Q8NER1); experiment: Agonist activity at human TRPV1 expressed HEK293 cells assessed as calcium mobilization at 10 uM
# [2] = target: Transient receptor potential cation channel subfamily V member 1 (Homo sapiens) (UniProt Q8NER1); experiment: Agonist activity at human TRPV1 expressed HEK293 cells assessed as reduction of capsaicin-induced calcium mobilization at 1 uM; set-up: scale not given: the % may be the effect or the level left
# [3] = target: Transient receptor potential cation channel subfamily V member 1 (Homo sapiens) (UniProt Q8NER1); experiment: Agonist activity at human TRPV1 expressed HEK293 cells assessed as calcium mobilization at 12 uM
# Chain of Transient receptor potential cation channel subfamily V member 1 (Homo sapiens) (Q8NER1 whole entry): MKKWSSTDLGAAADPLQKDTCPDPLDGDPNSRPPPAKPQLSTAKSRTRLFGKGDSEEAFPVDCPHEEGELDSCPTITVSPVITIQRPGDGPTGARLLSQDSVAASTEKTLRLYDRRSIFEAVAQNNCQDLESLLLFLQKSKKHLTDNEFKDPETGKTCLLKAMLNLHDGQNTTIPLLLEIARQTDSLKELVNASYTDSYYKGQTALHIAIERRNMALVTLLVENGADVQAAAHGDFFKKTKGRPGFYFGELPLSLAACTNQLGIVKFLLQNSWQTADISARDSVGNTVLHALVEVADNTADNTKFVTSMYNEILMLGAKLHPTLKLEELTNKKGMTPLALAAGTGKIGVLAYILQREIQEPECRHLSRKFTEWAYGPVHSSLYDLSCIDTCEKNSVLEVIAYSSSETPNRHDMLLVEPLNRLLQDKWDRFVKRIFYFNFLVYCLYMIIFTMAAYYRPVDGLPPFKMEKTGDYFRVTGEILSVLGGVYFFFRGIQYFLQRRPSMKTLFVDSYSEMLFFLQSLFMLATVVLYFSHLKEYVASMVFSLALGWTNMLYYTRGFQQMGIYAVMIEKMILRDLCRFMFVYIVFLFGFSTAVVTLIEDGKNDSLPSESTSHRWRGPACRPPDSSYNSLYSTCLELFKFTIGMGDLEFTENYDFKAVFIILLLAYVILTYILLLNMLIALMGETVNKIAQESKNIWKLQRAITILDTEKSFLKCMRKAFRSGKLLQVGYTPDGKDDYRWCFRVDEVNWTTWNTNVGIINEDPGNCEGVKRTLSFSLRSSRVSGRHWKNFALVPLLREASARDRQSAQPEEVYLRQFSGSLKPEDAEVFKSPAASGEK
SMILES,Activity [1],Activity [2],Activity [3]
CCCCC/C=C/C/C=C/C/C=C/C/C=C/CCCC(=O)N1CCc2cc(O)c(O)cc2C1C (configuration not stated),55%,40%,
CCCCC/C=C/C/C=C/C/C=C/C/C=C/CCCC(=O)N1CCc2cc(OC)c(O)cc2C1C (configuration not stated),18%,35%,
CCCCC/C=C/C/C=C/CCCCCCCC(=O)N1CCc2cc(O)c(O)cc2C1C (configuration not stated),36%,35%,
CCCCC/C=C/C/C=C/CCCCCCCC(=O)N1CCc2cc(OC)c(O)cc2C1C (configuration not stated),11%,25%,

# Other lines, results leading:
Activity [1],Activity [2],Activity [3],SMILES
25%,45%,,CC/C=C/C/C=C/C/C=C/C/C=C/C/C=C/C/C=C/CCC(=O)N1CCc2cc(O)c(O)cc2C1C (configuration not stated)
,5%,14%,CC/C=C/C/C=C/C/C=C/C/C=C/C/C=C/C/C=C/CCC(=O)N1CCc2cc(OC)c(O)cc2C1C (configuration not stated)
